Laboratory results reported in patent US6514747B2 (UT-Battelle, LLC, priority 1993, dated 2003).

Assays:
3T3-L1 adipocytes = experiment: lipogenesis in 3T3-L1 adipocytes (FAS and SCD mRNA, FAS activity, triglyceride content); format: cell-based; settings: nitrendipine alone
L6 skeletal myocytes = experiment: [Ca2+]i in L6 skeletal myocytes (fura 2); format: cell-based
untransfected 293 cells = experiment: adenylyl cyclase assay in untransfected 293 cells; format: cell-based, human; settings: untransfected 293 cells
Procedure: 293 cells (5×10^5) and 293 cells expressing human TSH-R were preloaded with 5 μCi ^3H-adenine for 1.5 h at 37° C. in a 5% CO2 incubator.
Medium was aspirated and 2.5% perchloric acid containing 0.1 mM cAMP was used to stop the incubation. Adenylyl cyclase activity was calculated by determining the percent conversion of ^3H-adenine to ^3H-cAMP as described (Salomon, 1991; Johnson and Salomon, 1991). Correlation of cAMP accumulation measured in this assay with actual adenylyl cyclase activity is made under the assumption that isobutymethylxanthine effectively blocks cAMP degradation. Data represent means and standard deviations from triplicate data points.

[1] = test system: aP212 and aP273 transgenic mice; experiment: daily insulin injections in aP2-agouti transgenic mice; format: in vivo, mouse
Procedure: All mice were maintained at Oak Ridge National Laboratory. The FVB/N mice were obtained from random-bred stock. All mice were fed a diet containing 11% fat by weight (Mouse Diet 5015; Purina), weaned at 4 wk of age, and subsequently weighed monthly. Food and water were obtained from ad libitum. All data are from mice that are hemizygous for the transgene.
Plasma and serum were obtained by retro-orbital sinus puncture from nonfasted mice between 9 am and 11 am. Plasma insulin levels were measured by radioimmunoassay (ICN) with porcine insulin as a standard. Blood glucose concentrations were determined by blood sampling from the tail vein followed by quantification via One-Touch™ glucose determination system (Johnson & Johnson).
Six- to ten-wk-old male mice were subcutaneously injected between 11 am and noon with Humulin U ultralente (Eli Lilly, Indianapolis, Ind.) at a daily dose of 0.5, 1, or 2 units/day per mouse. Insulin (100 units/ml) was diluted before injection with phosphate-buffered saline so that all mice received a 200-μl injection. A 1-ml syringe was filled with […] of the diluted insulin solution. To keep the insulin suspension as uniform as possible, it was mixed between each injection via plunger action.

[2] = biological target: T1, human melanocortin 1 receptor (hMC1R) (Homo sapiens, UniProt Q01726); experiment: [Ca2+]i in HEK-293 cells transfected with hMC1R; format: cell-based; settings: 20 nM agouti, n = 8
T1 construct: The coding region of the human melanocortin 1, 3, and 5 receptor (hMC1R, hMC3R, and hMC5R) genes was amplified; expressed in transfected cells; host or cells: HEK-293 cells, cotransfected with pMT4 construct and pRSV-Neo, geneticin-selected clones
Procedure: The coding region of the human melanocortin 1, 3, and 5 receptor (hMC1R, hMC3R, and hMC5R) genes was amplified by polymerase chain reaction and subcloned into the vector pMT4, and the sequence was verified. HEK-293 cells, which appear to lack endogenous melanocortin receptors (Lu et al., 1994), were cotransfected with pMT4 and pRSV-Neo by either calcium phosphate coprecipitation method or the use of Transfectam reagent (Promega). Clones were selected using 600 μg geneticin/ml. culture medium.
[Ca^2+]i was measured in L6, A7r5, and HEK-293 cells (Zemel et al., 1995) as previously described and in 3T3-L1 cells as described by Klip and Ramlal (1987). Monolayers of nonfused L6 cells and confluent A7r5 cells after 14-16 h of starvation in a serum-free culture medium were rinsed with Hanks' balanced salt solution (HBSS), detached by incubation in 2 ml trypsin (0.05%) for 2-3 min at 37° C., and released by pipetting without trypsinization. Cells were harvested by centrifugation at 50 g and resuspended in 1 ml HBSS at a density of ˜10^6 cells/ml. For 3T3-L1 cells, monolayers of differentiated adipocytes were rinsed with serum-free DMEM and exposed to 0.05% trypsin for 3 min. The solution was decanted, and the cells were incubated for 3 min in culture medium. Cells were detached by pipetting and collected by centrifugation at 50 g. Cells were then incubated in culture medium to recover for 1 h followed by incubation in serum-free DMEM for 4 h at 37° C. in an atmosphere of 5% CO2, collected by centrifugation, and resuspended in HBSS at a density of ˜10^6 cells/ml. Cell suspensions were chilled on ice for 5 min and loaded with […] (final concn) fura 2 acetoxymethyl ester (AM; Sigma) in the dark for 20 min at 37° C. For 3T3-L1 adipocytes, the chilling step was skipped. […] [Ca^2+]i levels were then measured fluorometrically in suspensions using dual excitation (340 and 380 nm)-single emission (510 nm) fluorometry as previously described (Zemel et al., 1995). [Ca^2+]i was then calculated by the computer in the fluorometer with the equation of Grynkiewicz et al. (1985). […]

[3] = biological target: T2, human melanocortin 3 receptor (hMC3R) (Homo sapiens, UniProt P41968); experiment: [Ca2+]i in HEK-293 cells transfected with hMC3R; format: cell-based; settings: 20 nM agouti, n = 8
T2 construct: The coding region of the human melanocortin 1, 3, and 5 receptor (hMC1R, hMC3R, and hMC5R) genes was amplified; expressed in transfected cells; host or cells: HEK-293 cells, cotransfected with pMT4 construct and pRSV-Neo, geneticin-selected clones
Procedure: [Ca^2+]i was measured in L6, A7r5, and HEK-293 cells (Zemel et al., 1995) as previously described and in 3T3-L1 cells as described by Klip and Ramlal (1987). Monolayers of nonfused L6 cells and confluent A7r5 cells after 14-16 h of starvation in a serum-free culture medium were rinsed with Hanks' balanced salt solution (HBSS), detached by incubation in 2 ml trypsin (0.05%) for 2-3 min at 37° C., and released by pipetting without trypsinization. Cells were harvested by centrifugation at 50 g and resuspended in 1 ml HBSS at a density of ˜10^6 cells/ml. For 3T3-L1 cells, monolayers of differentiated adipocytes were rinsed with serum-free DMEM and exposed to 0.05% trypsin for 3 min. The solution was decanted, and the cells were incubated for 3 min in culture medium. Cells were detached by pipetting and collected by centrifugation at 50 g. Cells were then incubated in culture medium to recover for 1 h followed by incubation in serum-free DMEM for 4 h at 37° C. in an atmosphere of 5% CO2, collected by centrifugation, and resuspended in HBSS at a density of ˜10^6 cells/ml. […] [Ca^2+]i levels were then measured fluorometrically in suspensions using dual excitation (340 and 380 nm)-single emission (510 nm) fluorometry as previously described (Zemel et al., 1995). [Ca^2+]i was then calculated by the computer in the fluorometer with the equation of Grynkiewicz et al. (1985). […]

[4] = test system: isolated human adipocytes; experiment: [Ca2+]i in isolated human adipocytes; format: cell-based

T2 sequence (P41968 whole entry): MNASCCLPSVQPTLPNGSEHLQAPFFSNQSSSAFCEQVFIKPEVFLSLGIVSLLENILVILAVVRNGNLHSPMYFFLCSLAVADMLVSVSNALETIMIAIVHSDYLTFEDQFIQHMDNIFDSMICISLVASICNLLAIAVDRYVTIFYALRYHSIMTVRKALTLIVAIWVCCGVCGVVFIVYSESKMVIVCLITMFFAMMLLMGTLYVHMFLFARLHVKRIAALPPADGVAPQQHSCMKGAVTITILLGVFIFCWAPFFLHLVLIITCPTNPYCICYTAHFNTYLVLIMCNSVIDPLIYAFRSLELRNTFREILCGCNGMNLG
T1 sequence (Q01726 whole entry): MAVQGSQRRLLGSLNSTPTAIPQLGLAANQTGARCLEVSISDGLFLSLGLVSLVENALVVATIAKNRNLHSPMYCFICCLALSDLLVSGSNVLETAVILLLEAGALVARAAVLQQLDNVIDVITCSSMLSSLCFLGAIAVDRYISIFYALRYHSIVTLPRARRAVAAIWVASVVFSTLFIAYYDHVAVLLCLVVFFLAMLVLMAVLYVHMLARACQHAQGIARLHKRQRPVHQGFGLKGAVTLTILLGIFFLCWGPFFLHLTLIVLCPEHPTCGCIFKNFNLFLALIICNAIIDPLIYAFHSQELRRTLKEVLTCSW

CCOC(=O)C1=C(C)NC(C)=C(C(=O)OC)C1c1cccc([N+](=O)[O-])c1 (stereo not drawn) [nitrendipine, reference compound]
effect on FAS activity or triglyceride content (3T3-L1 adipocytes): no effect
reduction of [Ca2+]i response to 50 nM agouti (L6 skeletal myocytes; 30 μM nitrendipine): ~50%
[Ca2+]i response to 50 nM agouti (L6 skeletal myocytes; with 30 μM nitrendipine): 22 ± 6 nM

α-melanocyte-stimulating hormone [α-MSH, reference compound]
effect on the cAMP pathway (untransfected 293 cells): no effect

insulin: Humulin U ultralente (Eli Lilly), injected subcutaneously
time for blood glucose levels to return to normal after insulin injection ([1]; 1 unit per mouse s.c., aP212 mice and littermates): ≤ 24 h
average rate of weight gain, insulin-injected transgenic mice vs control mice ([1]; 2 units of insulin per day per mouse s.c., 7 days): 1.7 fold

B1: human agouti: recombinant human agouti protein (132 amino acids, SEQ ID NO:4) produced in baculovirus-infected T. ni cells (protein)
chain: MDVTRLLLATLLVFLCFFTANSHLPPEEKLRDDRSLRSNSSVNLLDVPSVSIVALNKKSKQIGRKAAEKKRSSKKEASMKKVVRPRTPLSAPCVATRNSCKPPAPACCDPCASCQCRFFRSACSCRVLSLNC
modifications: Homo sapien
[Ca2+]i Increase over Baseline [2]: 57 ± 9
[Ca2+]i Increase over Baseline [3]: 77 ± 14
[Ca2+]i [4]: stimulate an increase
